# Key:
# Type in all cases: cell-based
# [1] = system: Staphylococcus aureus (ATCC29213); assay: In-vitro anti-bacterial microtitre plate assay, IC90 determination (STA 1 B29213); settings: 90% inhibitory concentration for bacterial growth, 37° C., resazurin fluorescence; for IC90 values STA 1 B29213: 24 hours; for IC90: Staphylococcus aureus, ATCC29213, 24 h
# Description: (§1) The bacteria used in this study were grown overnight in flasks containing 100 ml Mueller-Hinton Broth (Becton Dickinson—cat. no. 275730) in sterile de-ionized water, with shaking, at 37° C. Stocks (0.5 ml/tube) were stored at −70° C. until use. Bacteria titrations were performed in microtiter plates to detect the TCID50, in which the TCID50 represents the dilution that gives rise to bacterial growth in 50% of inoculated cultures.
# (§2) In general, an inoculum level of approximately 100 TCID50 was used for susceptibility testing.
# (§3) Flat-bottom, sterile 96-well plastic microtiter plates were filled with 180 μl of sterile deionized water, supplemented with 0.25% BSA. Subsequently, stock solutions (7.8× final test concentration) of compounds were added in 45 μl volumes in column 2. Serial five-fold dilutions (45 μl in 180 μl) were made directly in the microtiter plates from column 2 to reach column 11. Untreated control samples with (column 1) and without (column 12) inoculum were included in each microtiter plate. Depending on the bacteria type, approximately 10 to 60 CFU per well of bacteria inoculum (100 TCID50), in a volume of 100 μl in 2.8× Mueller-Hinton broth medium, was added to the rows A to H, except column 12. The same volume of broth medium without inoculum was added to column 12 in row A to H. The cultures were incubated at 37° C. for 24 hours under a normal atmosphere (incubator with open air valve and continuous ventilation). At the end of incubation, one day after inoculation, the bacterial growth was quantitated fluorometrically. Therefore resazurin (0.6 mg/ml) was added in a volume of 20 μl to all wells 3 hours after inoculation, and the plates were re-incubated overnight. A change in colour from blue to pink indicated the growth of bacteria. The fluorescence was read in a computer-controlled fluorometer (Cytofluor Biosearch) at an excitation wavelength of 530 nm and an emission wavelength of 590 nm. The % growth inhibition achieved by the compounds was calculated according to standard methods.
# (§4) STA 29213 means Staphylococcus aureus (ATCC29213); SPN 6305 means Streptococcus pneumoniae (ATCC6305); MSM 607 means M. Smegmatis (ATCC607); ATCC means […].
# M. Smegmatis (ATCC607) = assay: In-vitro anti-bacterial activity against strain M. Smegmatis ATCC607; settings: 90% inhibitory concentration for bacterial growth, 37° C., Alamar Blue fluorescence; for IC90 values MSM 1 ATCC607: 48 hours; for IC90: Mycolicibacterium smegmatis, ATCC607, 48 h, read-out: IC90 values MSM 1 ATCC607
# Description: Flat-bottom, sterile 96-well plastic microtiter plates were filled with 180 μl of sterile deionized water, supplemented with 0.25% BSA. Subsequently, stock solutions (7.8× final test concentration) of compounds were added in 45 μl volumes to a series of duplicate wells in column 2 so as to allow evaluation of their effects on bacterial growth. Serial five-fold dilutions (45 μl in 180 μl) were made directly in the microtiter plates from column 2 to 11 using a customised robot system (Zymark Corp., Hopkinton, Mass.). Pipette tips were changed after every 3 dilutions to minimize pipetting errors with high hydrophobic compounds. Untreated control samples with (column 1) and without (column 12) inoculum were included in each microtiter plate. Approximately 250 CFU per well of bacteria inoculum, in a volume of 100 μl in 2.8× Mueller-Hinton broth medium, was added to the rows A to H, except column 12. The same volume of broth medium without inoculum was added to column 12 in row A to H. The cultures were incubated at 37° C. for 48 hours in a humidified 5% CO2 atmosphere (incubator with open air valve and continuous ventilation). At the end of incubation, two days after inoculation, the bacterial growth was quantitated fluorometrically. Therefore Alamar Blue (10×) was added to all wells in a volume of 20 μl and plates were incubated for another 2 hours at […]
# The fluorescence was read in a computer-controlled fluorometer (Cytofluor, Biosearch) at an excitation wavelength of 530 nm and an emission wavelength of 590 nm (gain 30).
# as §4
# [2] = system: Streptococcus pneumoniae (ATCC6305); assay: In-vitro anti-bacterial microtitre plate assay, IC90 determination (SPN 1 6305); settings: 90% inhibitory concentration for bacterial growth, 37° C., resazurin fluorescence; for IC90 values SPN 1 6305: 24 hours; for IC90: Streptococcus pneumoniae, ATCC6305, 24 h
# Description: as §1, §2, §3, §4
Compound,IC90 values STA 1 B29213 [1] [µg/mL],IC90 values MSM 1 ATCC607 (M. Smegmatis (ATCC607)) [µg/mL],IC90 values SPN 1 6305 [2] [µg/mL],IC90 (M. Smegmatis (ATCC607)) [µg/mL],IC90 [1] [µg/mL],IC90 [2] [µg/mL]
"COc1ccc(-c2cccc(C(O)(CCCCN(C)C)C(c3ccccc3)c3cc4cc(Br)ccc4nc3OC)c2)cc1 (single isomer, unassigned) [Compound 39]",2.02,2.02,2.02,,,
"COc1nc2ccccc2cc1C(c1ccc(-c2cnn(C)c2)cc1)C(O)(CCCCN(C)C)c1ccc2ccccc2c1 (single isomer, unassigned) [Compound 11]",1.9,1.9,1.9,,,
"COc1nc2ccc(Br)cc2cc1C(c1ccccc1)C(O)(CCCCCN(C)C)c1cccc(-c2ccccc2)c1 (single isomer, unassigned) [Compound 36]",1.97,1.76,,,,
"COc1nc2ccccc2cc1C(c1cccc(-c2ccncc2)c1)C(O)(CCCCN(C)C)c1ccc2ccccc2c1 (single isomer, unassigned) [Compound 9]",1.8,1.5,1.8,,,
"COc1nc2ccc(Br)cc2cc1C(c1ccccc1)C(O)(CCCCN(C)C)c1cccc(-c2ccc(Cl)cc2)c1 (single isomer, unassigned) [Compound 33]",2.04,,1.82,2.04,,
"COc1nc2ccccc2cc1C(c1ccc(-c2ccoc2)cc1)C(O)(CCCCN(C)C)c1ccc2ccccc2c1 (single isomer, unassigned) [Compound 12]",,,,1.8,1.8,2
"COc1nc2ccccc2cc1C(c1ccc(-c2cccnc2)cc1)C(O)(CCCCN(C)C)c1ccc2ccccc2c1 (single isomer, unassigned) [Compound 7]",,,,1.8,1.8,1.8
"COc1nc2ccc(Br)cc2cc1C(c1ccccc1)C(O)(CCCCN(C)C)c1cccc(-c2ccc(C)cc2)c1 (single isomer, unassigned) [Compound 42]",2.21,0.79,,,,
"COc1nc2ccc(Br)cc2cc1C(c1ccccc1)C(O)(CCCCN(C)C)c1cccc(/C=C/c2ccccc2)c1 (single isomer, unassigned) [Compound 55]",2.01,1.792,0.898,,,
"COc1nc2ccccc2cc1C(c1ccc(-c2cccnc2)cc1)C(O)(CCCCN(C)C)c1ccc2ccccc2c1 (single isomer, unassigned) [Compound 7b]",1.8,1.5,1.85,,,
"COc1nc2ccc(Br)cc2cc1C(c1ccoc1)C(O)(CCN(C)C)c1ccccc1 (single isomer, unassigned) [Compound 52]",49.54,0.06,,,,
"COc1nc2ccc(Br)cc2cc1C(c1ccccc1)C(O)(CCCCN1CCN(C)CC1)COc1ccc(C)cc1 (single isomer, unassigned) [Compound 23]",2.0,2.0,2.0,,,
"COc1nc2ccc(Br)cc2cc1C(c1ccccc1)C(O)(CCCCN1CCN(C)CC1)COc1ccccc1 (single isomer, unassigned) [Compound 19]",4.4,2.0,2.5,,,
"COc1nc2ccc(Br)cc2cc1C(c1ccccc1)C(O)(CCCCN(C)C)c1cccc(-c2ccccc2)c1 (single isomer, unassigned) [Compound 31]",,,0.86,1.93,1.93,
COc1nc2ccc(Br)cc2cc1C(c1ccccc1)C(O)(CCCCN(C)C)c1cccc(/C=C/c2ccccc2)c1 (stereo not drawn) [Compound 47],2.01,2.01,,,,
"COc1nc2ccc(Br)cc2cc1C(c1ccccc1)C(O)(CCCCN(C)C)c1cccc(-c2ccc(Cl)cc2)c1 (single isomer, unassigned) [Compound 34]",0.91,1.29,0.72,,,
"COc1nc2ccccc2cc1C(c1ccc(-c2cnc3ccccc3c2)cc1)C(O)(CCCCN(C)C)c1ccc2ccccc2c1 (single isomer, unassigned) [Compound 50]",25.15,22.42,,,,
"COc1nc2ccc(Br)cc2cc1C(c1ccccc1)C(O)(CCCCCN(C)C)c1cccc(-c2ccccc2)c1 (single isomer, unassigned) [Compound 35]",,,,1.76,1.97,
"COc1nc2ccc(Br)cc2cc1C(c1ccccc1)C(O)(CCCCN(C)C)c1cccc(-c2ccc(C)cc2)c1 (single isomer, unassigned) [Compound 40]",,7.85,,,1.97,1.97
"COc1nc2ccccc2cc1C(c1ccc(-c2cnc3ccccc3c2)cc1)C(O)(CCCCN(C)C)c1ccc2ccccc2c1 (single isomer, unassigned) [Compound 49]",2.00,2.00,,,,
"COc1ccc(-c2cccc(C(O)(CCCCN(C)C)C(c3ccccc3)c3cc4cc(Br)ccc4nc3OC)c2)cc1 (single isomer, unassigned) [Compound 38]",,10.14,,,2.02,2.02
COc1nc2ccc(Br)cc2cc1C(c1ccccc1)C(O)(CCCCN(C)C)c1cccc(/C=C/c2ccccc2)c1 (stereo not drawn) [Compound 46],2.01,2.01,,,,
"COc1nc2ccc(Br)cc2cc1C(c1ccoc1)C(O)(CCN(C)C)c1ccccc1 (single isomer, unassigned) [Compound 51]",,1.57,,,39.4,
COc1nc2ccc(Br)cc2cc1C(c1ccccc1)C(O)(CCCCN(C)C)c1cccc(/C=C/c2ccccc2)c1 (stereo not drawn) [Compound 45],2.01,2.01,,,,
"COc1nc2ccc(Br)cc2cc1C(c1ccoc1)C(O)(CCc1ccc(F)cc1)CCN(C)C (single isomer, unassigned) [Compound 54]",8.58,1.92,,,,
COc1nc2ccc(Br)cc2cc1C(c1ccccc1)C(O)(CCCCN(C)C)c1cccc(/C=C/c2ccccc2)c1 (stereo not drawn) [Compound 44],,0.90,,,1.79,
"COc1nc2ccccc2cc1C(c1ccc(-c2cccs2)cc1)C(O)(CCCCN(C)C)c1ccc2ccccc2c1 (single isomer, unassigned) [Compound 15]",1.9,,2.3,,,
"COc1nc2ccc(Br)cc2cc1C(c1ccccc1)C(O)(CCCCCN(C)C)c1cccc(/C=C/c2ccccc2)c1 (single isomer, unassigned) [Compound 37]",,,,1.63,2.05,
"COc1nc2ccccc2cc1C(c1ccc(-c2ccncc2)cc1)C(O)(CCCCN(C)C)c1ccc2ccccc2c1 (single isomer, unassigned) [Compound 43]",4.60,0.37,,,,

# Source: patent publication US8293732B2, “Antibacterial quinoline derivatives” (Janssen Pharmaceutica N.V., priority 2006, dated 2012)
